Measurements from PubChem BioAssay AID206 (DTP/NCI, 2004).
Values joined by “and” are separate entries in the source; they are usually repeats but may differ in a detail not shown here. Equal values may be shown once. Records with an inconclusive call do not appear.

System: nude mice, HT29 intrarenal xenograft, tumor weight T/C
Assay: NCI In Vivo Anticancer Drug Screen. Data for tumor model HT29;CX-1 Human Adenocarcinoma (MER+) (intrarenal inoculation) in NU/NU Swiss (nude) mice
Details: endpoint: mean tumor weight change, higher = larger tumour
In short: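 Tumor-bearing mice received test compound or vehicle, and tumor size or survival was recorded. Values are the treated-group measurement divided by the vehicle-treated control measurement.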

[1] = dose: 100.0 mg/kg/injection, schedule: Q01DX010 (sc), vehicle: saline with Tween-80
[2] = dose: 200.0 mg/kg/injection, schedule: Q01DX010 (sc), vehicle: saline with Tween-80
[3] = dose: 150.0 mg/kg/injection, schedule: Q04DX004 (sc), vehicle: saline with Tween-80
[4] = dose: 300.0 mg/kg/injection, schedule: Q04DX004 (sc), vehicle: saline with Tween-80
[5] = dose: 50.0 mg/kg/injection, schedule: Q04DX004 (sc), vehicle: saline with Tween-80
[6] = dose: 100.0 mg/kg/injection, schedule: Q04DX004 (sc), vehicle: saline with Tween-80
[7] = dose: 200.0 mg/kg/injection, schedule: Q04DX004 (sc), vehicle: saline with Tween-80
[8] = dose: 37.5 mg/kg/injection, schedule: Q04DX004 (sc), vehicle: saline with Tween-80

COc1cc2c(c(OC)c1OC)-c1ccc(OC)c(=O)cc1[C@@H](NC(=O)CCl)CC2
T/C (dose: 0.63 mg/kg/injection, schedule: Q04DX004 (sc), vehicle: saline with Tween-80): 60 % of control | T/C (dose: 1.25 mg/kg/injection, schedule: Q04DX004 (sc), vehicle: saline with Tween-80): 32 % of control | T/C (dose: 2.5 mg/kg/injection, schedule: Q04DX004 (sc), vehicle: saline with Tween-80): 57 % of control

CCN(CC)CCCC(C)Nc1c2ccc(Cl)cc2nc2ccc(OC)cc12 (configuration not stated)
T/C (dose: 50.0 mg/kg/injection, schedule: Q01DX010 (sc), vehicle: saline with Tween-80): 75 % of control | T/C [1]: 91 % of control | T/C [2]: 38 % of control

CC/C(=C(/CC)c1ccc(O)cc1)c1ccc(O)cc1
T/C [3]: 70 % of control | T/C [4]: 69 % of control

CCC1=C2C(=O)c3ccccc3C2=C(C)S(=O)(=O)O1
T/C [3]: 70 % of control | T/C [4]: 50 % of control | T/C (dose: 1200.0 mg/kg/injection, schedule: Q04DX004 (sc), vehicle: saline with Tween-80): 89 % of control

CCC1(O)CC2CN(CCc3c([nH]c4ccccc34)C(C(=O)OC)(c3cc4c(cc3OC)N(C)C3C(O)(C(N)=O)C(O)C5(CC)C=CCN6CCC43C65)C2)C1 (configuration not stated) (tested in a mixture with another compound)
T/C (dose: 1.5 mg/kg/injection, schedule: Q04DX004 (sc), vehicle: water): 87 % of control | T/C (dose: 12.0 mg/kg/injection, schedule: Q04DX004 (sc), vehicle: water): -25 % of control

CCOC(=O)C(N)C[S][Sn]([CH3])([CH3])[Cl] (configuration not stated)
T/C (dose: 18.75 mg/kg/injection, schedule: Q04DX004 (sc), vehicle: saline): 169 % of control | T/C (dose: 75.0 mg/kg/injection, schedule: Q04DX004 (sc), vehicle: saline): 72 % of control

CCN(CC)CCOC(=O)Cc1cccc2c(=O)cc(-c3ccccc3)oc12
T/C [5]: 70 % of control | T/C [6]: 104 % of control | T/C [7]: 102 % of control

CC(C)[NH-].CC(C)[NH-].O.O.[Cl][Pt+2][Cl]
T/C (dose: 6.25 mg/kg/injection, schedule: Q01DX010 (sc), vehicle: dextrose): 77 % of control and 79 % of control | T/C (dose: 12.5 mg/kg/injection, schedule: Q01DX010 (sc), vehicle: dextrose): 7 % of control and 23 % of control

Cc1ccc(S(=O)(=O)NC(=O)OC23COCN2COC3)cc1
T/C [7]: 84 % of control | T/C (dose: 800.0 mg/kg/injection, schedule: Q04DX004 (sc), vehicle: saline with Tween-80): 153 % of control | T/C (dose: 1600.0 mg/kg/injection, schedule: Q04DX004 (sc), vehicle: saline with Tween-80): 121 % of control

CN(N=O)C(N)=O
T/C (dose: 12.5 mg/kg/injection, schedule: Q01DX010 (sc), vehicle: saline with Tween-80): 119 % of control | T/C (dose: 25.0 mg/kg/injection, schedule: Q01DX010 (sc), vehicle: saline with Tween-80): 41 % of control | T/C (dose: 100.0 mg/kg/injection, schedule: Q04DX004 (sc), vehicle: suspension in saline): 101 % of control

O=S(=O)(N=N/C=C1\C=CC=CN1O)c1cccs1
T/C [3]: 75 % of control

CC1(C)OCC(CO)(Nc2nc(N3CC3)nc(N3CC3)n2)CO1
T/C (dose: 2.0 mg/kg/injection, schedule: Q04DX004 (sc), vehicle: saline): 76 % of control

C(COCCOCC1CO1)OCCOCC1CO1 (configuration not stated)
T/C (dose: 150.0 mg/kg/injection, schedule: Q04DX004 (sc), vehicle: saline): 63 % of control | T/C (dose: 300.0 mg/kg/injection, schedule: Q04DX004 (sc), vehicle: saline): 55 % of control | T/C (dose: 600.0 mg/kg/injection, schedule: Q04DX004 (sc), vehicle: saline): 43 % of control

COc1cccc2c1C(=O)c1c(O)c3c(c(O)c1C2=O)C[C@@](O)(C(=O)CO)C[C@@H]3OC1CC(OC(C)=O)C(OC(C)=O)C(C)O1 (some centres not stated)
T/C (dose: 25.0 mg/kg/injection, schedule: Q01DX010 (sc), vehicle: distilled water + Tween-80): 35 % of control

O=C(CO)c1ccc([N+](=O)[O-])cc1
T/C [1]: 63 % of control | T/C [2]: 70 % of control | T/C (dose: 400.0 mg/kg/injection, schedule: Q01DX010 (sc), vehicle: saline with Tween-80): 122 % of control | T/C (dose: 800.0 mg/kg/injection, schedule: Q01DX010 (sc), vehicle: saline with Tween-80): 75 % of control

CC[C@@H](C)[C@@H]1NC(=O)C(NC(=O)C(CC(C)C)N(C)C(=O)C2CCCN2C(=O)C(C)O)C(C)OC(=O)C(Cc2ccc(OC)cc2)N(C)C(=O)C2CCCN2C(=O)C(CC(C)C)NC(=O)C(C)C(=O)C(C(C)C)OC(=O)C[C@H]1O (some centres not stated)
T/C (dose: 225.0 micrograms/kg/injection, schedule: Q04DX004 (sc), vehicle: distilled water + alcohol): 105 % of control | T/C (dose: 450.0 micrograms/kg/injection, schedule: Q04DX004 (sc), vehicle: distilled water + alcohol): 106 % of control | T/C (dose: 900.0 micrograms/kg/injection, schedule: Q04DX004 (sc), vehicle: distilled water + alcohol): 78 % of control | T/C (dose: 1800.0 micrograms/kg/injection, schedule: Q04DX004 (sc), vehicle: distilled water + alcohol): 29 % of control

Cc1ccc(S(=O)(=O)NC(=S)S)cc1
T/C [1]: 110 % of control | T/C [2]: 191 % of control

O=S(=O)(c1ccccc1)N1CN2CCN(C2)C1
T/C (dose: 225.0 mg/kg/injection, schedule: Q04DX004 (sc), vehicle: saline with Tween-80): 58 % of control | T/C (dose: 450.0 mg/kg/injection, schedule: Q04DX004 (sc), vehicle: saline with Tween-80): 75 % of control | T/C (dose: 900.0 mg/kg/injection, schedule: Q04DX004 (sc), vehicle: saline with Tween-80): 90 % of control

Cc1ccc(NCCN(C)C)c2c(=O)c3cc(O)ccc3sc12
T/C (dose: 225.0 mg/kg/injection, schedule: Q04DX004 (sc), vehicle: Klucel (hydroxypropylcellulose) (HPC)): 81 % of control | T/C (dose: 450.0 mg/kg/injection, schedule: Q04DX004 (sc), vehicle: Klucel (hydroxypropylcellulose) (HPC)): 64 % of control | T/C (dose: 900.0 mg/kg/injection, schedule: Q04DX004 (sc), vehicle: Klucel (hydroxypropylcellulose) (HPC)): 99 % of control | T/C (dose: 1800.0 mg/kg/injection, schedule: Q04DX004 (sc), vehicle: Klucel (hydroxypropylcellulose) (HPC)): 68 % of control

O=c1nc(-c2ccco2)sc(=O)[nH]1
T/C (dose: 300.0 mg/kg/injection, schedule: Q04DX004 (sc), vehicle: Klucel (hydroxypropylcellulose) (HPC)): 235 % of control | T/C (dose: 600.0 mg/kg/injection, schedule: Q04DX004 (sc), vehicle: Klucel (hydroxypropylcellulose) (HPC)): 98 % of control

C=C(C)[C@H]1Cc2c(ccc3c2O[C@@H]2COc4cc(OC)c(OC)cc4[C@@H]2C3=O)O1
T/C (dose: 2.0 mg/kg/injection, schedule: Q01DX010 (sc), vehicle: saline with Tween-80): 161 % of control | T/C (dose: 4.0 mg/kg/injection, schedule: Q01DX010 (sc), vehicle: saline with Tween-80): 29 % of control | T/C (dose: 8.0 mg/kg/injection, schedule: Q01DX010 (sc), vehicle: saline with Tween-80): 57 % of control

C=C(NC(=O)C(=C)NC(=O)c1csc(C2=NC3c4csc(n4)C4NC(=O)c5csc(n5)C(C(C)(O)C(C)O)NC(=O)C5CSC(=N5)/C(=C/C)NC(=O)C(C(C)O)NC(=O)c5csc(n5)C3(CC2)NC(=O)C(C)NC(=O)C(=C)NC(=O)C(=C)NC(=O)C(C(C)C)NC2C=Cc3c(C(C)O)cc(nc3C2O)C(=O)OC4C)n1)C(N)=O (configuration not stated)
T/C (dose: 125.0 mg/kg/injection, schedule: Q04DX004 (sc), vehicle: suspension in saline): 789 % of control | T/C (dose: 250.0 mg/kg/injection, schedule: Q04DX004 (sc), vehicle: suspension in saline): 419 % of control | T/C (dose: 500.0 mg/kg/injection, schedule: Q04DX004 (sc), vehicle: saline): 59 % of control | T/C (dose: 750.0 mg/kg/injection, schedule: Q04DX004 (sc), vehicle: saline): 97 % of control | T/C (dose: 750.0 mg/kg/injection, schedule: Q04DX004 (sc), vehicle: suspension in saline): 73 % of control | T/C (dose: 1000.0 mg/kg/injection, schedule: Q04DX004 (sc), vehicle: saline): 65 % of control | T/C (dose: 1250.0 mg/kg/injection, schedule: Q04DX004 (sc), vehicle: saline): 91 % of control | T/C (dose: 1250.0 mg/kg/injection, schedule: Q04DX004 (sc), vehicle: suspension in saline): 82 % of control

COC(=O)C(F)C(Br)C(=O)OC (configuration not stated)
T/C (dose: 9.37 mg/kg/injection, schedule: Q04DX004 (sc), vehicle: saline with Tween-80): 207 % of control | T/C (dose: 18.75 mg/kg/injection, schedule: Q04DX004 (sc), vehicle: saline with Tween-80): 68 % of control | T/C [8]: 223 % of control

CCN1/C(=C/C=C/C=C\C=C\c2sc3ccc4ccccc4c3[n+]2CC)Sc2ccc3ccccc3c21
T/C (dose: 25.0 mg/kg/injection, schedule: Q04DX004 (sc), vehicle: saline with Tween-80): 85 % of control | T/C [5]: 54 % of control | T/C [6]: 123 % of control | T/C [7]: 107 % of control

OC1CCCC2CCCNC12 (configuration not stated)
T/C [8]: 85 % of control | T/C (dose: 75.0 mg/kg/injection, schedule: Q04DX004 (sc), vehicle: saline with Tween-80): 77 % of control | T/C [3]: 83 % of control
